Here are results for one molecule from patent publication US20050272707A1, “Method for preventing or reducing secondary fractures after hip fracture” (priority 2002, published 2005).

SMILES strings stand for the structures. “Also recorded” adds a separate entry of the source.

Data set [1] deals with subsequent osteoporotic fractures after hip fracture. In words: placebo-controlled study of intravenous zoledronic acid in preventing subsequent osteoporotic fractures after a hip fracture. Conditions: patients after recent surgical repair of hip fracture; 5 mg i.v. once per year plus vitamin D and calcium vs vitamin D and calcium alone; 12 and 24 months. The class given is in vivo, human patients.
Source text: “A Multinational, multicenter, double-blind, randomized, placebo-controlled, parallel-group study assessing the efficacy of intravenous zoledronic acid in preventing subsequent osteoporotic fractures after a hip fracture” is undertaken.
This will be a multicenter, randomized, double-blind, placebo-controlled, parallel group trial in men and women. Patients undergoing recent surgical repair of a low-trauma hip fracture will be eligible for enrollment. There will be at least 3 study contacts with patients after randomization within the first 24 months. Patients will have additional visits annually until 211 patients have reached the primary endpoint. The final visit for patients will be contingent on when this endpoint is achieved. Once the endpoint is achieved all patients will need to come in for a final visit. The final visit will be no less than 30 days from the patient's last dose of study medication or no more than 90 days after the day 211 patients have reached the primary endpoint. […]
The primary efficacy endpoint is time to first clinical fracture. Between treatment differences will be evaluated using a log-rank test to compare the time to clinical fracture between the two treatment groups. […]

In data set [2] the test system is bone resorption. Conditions: variety of assays of bone metabolism; cited from earlier work.
The subject of data set [3] is bone resorption. To be noted: cited from earlier work.
Data set [4] is described as follows: stability of diluted infusion solution. The class given is physicochemical. To be noted: diluted with infusion media, 2-8° C.
Procedure: The cumulative time between dilution with infusion media, storage in a refrigerator and end of administration must not be longer than 24 hours. Ideally, diluted zoledronic acid solutions should be used immediately. However, if diluted zoledronic acid solutions cannot be used immediately, the solutions must be refrigerated at temperatures between 2-8° C. Before administration, the solution should be allowed to slowly warm to room temperature again.

With `O=P(O)(O)C(O)(Cn1ccnc1)P(=O)(O)O` [zoledronic acid, 1-hydroxy-2-(imidazol-1-yl)ethane-1,1-diphosphonic acid], the “rate of subsequent (secondary) osteoporotic fractures” value in data set [1] was “significant reduction in secondary osteoporotic fractures; also recorded: significantly reduces the rate of all subsequent osteoporotic skeletal fractures”. In data set [2], the “concentrations at which inhibition of bone resorption in vitro was demonstrated” value was 0.3 to 30 nM. The “untoward effects on bone formation or mineralization” value in data set [3] (at 0.3-30 nM in vitro and 0.3-30 μg/kg in vivo) is recorded as “without exerting any untoward effects on either bone formation or mineralization”. Further, in data set [3] (in vivo), the “doses at which inhibition of bone resorption in vivo was demonstrated” value is 0.3 to 30 µg/kg. In addition, in data set [4], the “stability of diluted infusion solutions” value is given as “at least 24 hours”.
